Measured values: US11541132B2, “Radiolabeled compounds” (Hoffmann-La Roche Inc., priority 2017, dated 2023)

What was measured:
[1] = target: T1, native aSyn aggregates in A30P transgenic mouse brain sections (Homo sapiens, UniProt P37840, A30P); test: aSyn in vitro displacement assay ([3H]Example-3 autoradiography); format: binding, mutant human aSyn gene); details: 1 μM compound; 3 nM [3H]Example-3; A30P transgenic mouse brain sections; read-out: PCT_INHIB A30P @ 1 μM (% displacement of [3H]Example-3)
T1 construct: from tissue; host or cells: brain sections (midbrain and pons as ROI) of A30P transgenic mice, line B6.D2-Tg(Thy1-SNCA*30P)31Pjk

[2] = target: T2, native Aβ aggregates in human AD brain tissue sections (Homo sapiens, UniProt P05067); test: Aβ in vitro displacement assay (selectivity counterscreen, [3H]Example 3 autoradiography); format: binding; details: 1 μM compound; 3 nM [3H]Example 3; human AD brain sections; read-out: sel. counterscreen PCT_INHIB AD @ 1 μM (% displacement of [3H]Example 3)
T2 construct: native Aβ aggregates in human AD brain tissue samples; from tissue; host or cells: human AD brain tissue sections
T2 sequence (P05067 672-713 limits assumed): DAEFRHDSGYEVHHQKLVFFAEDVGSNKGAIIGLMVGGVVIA

Row | SMILES | inhibition at 1 µM [1] [%] | inhibition at 1 µM [2] [%]
1 | COc1ccc(C(=O)Nc2ccc(N3CCN(c4ccccn4)CC3)cc2)c(C)c1 [Example 11, 4-Methoxy-2-methyl-N-(4-(4-(pyridin-2-yl)piperazin-1-yl)phenyl)benzamide] | 87 | 86
2 | O=C(Nc1ccc(N2CCN(c3ccccn3)CC2)cc1)c1ccc(OCCOCCF)cc1 [Example 12, 4-(2-(2-fluoroethoxy)ethoxy)-N-(4-(4-(pyridin-2-yl)piperazin-1-yl)phenyl) benzamide] | 99 | 99
3 | COc1ccc(C(=O)Nc2ccc(N3CCN(c4nccs4)CC3)cc2)cc1 [Example 13, 4-Methoxy-N-[4-[4-(1,3-thiazol-2-yl)piperazin-1-yl]phenyl]benzamide] | 90 | 103
4 | O=C(Nc1ccc(N2CCN(c3ccccn3)CC2)cc1)c1ccc2c(c1)OCCO2 [Example 14, N-(4-(4-(Pyridin-2-yl)piperazin-1-yl)phenyl)-2,3-dihydrobenzo[b][1,4]dioxine-6-carboxamide] | 91 | 96
5 | O=C(Nc1ccc(N2CCN(c3ccccn3)CC2)cc1)c1ccc2c(c1)OCO2 [Example 15, N-(4-(4-(Pyridin-2-yl)piperazin-1-yl)phenyl)benzo[d][1,3]dioxole-5-carboxamide] | 94 | 98
6 | O=C(Nc1ccc(N2CCN(c3ccccn3)CC2)cc1)c1ccn2ccnc2c1 [Example 16, N-(4-(4-(Pyridin-2-yl)piperazin-1-yl)phenyl)imidazo[1,2-a]pyridine-7-carboxamide] | 87 | 97
7 | O=C(Nc1ccc(N2CCN(c3ccccn3)CC2)cc1)c1ccc2nccn2c1 [Example 17, N-(4-(4-(Pyridin-2-yl)piperazin-1-yl)phenyl)imidazo[1,2-a]pyridine-6-carboxamide] | 87 | 98
8 | COc1ccc(C(=O)Nc2ccc(N3CCN(c4nccs4)CC3)cc2)c(F)c1 [Example 18, 2-Fluoro-4-methoxy-N-[4-[4-(1,3-thiazol-2-yl)piperazin-1-yl]phenyl]benzamide] | 95 | 99
9 | CN(C)c1ccc(C(=O)Nc2ccc(N3CCN(c4nccs4)CC3)cc2)cc1 [Example 20, 4-(Dimethylamino)-N-[4-[4-(1,3-thiazol-2-yl)piperazin-1-yl]phenyl]benzamide] | 90 | 103
10 | Cc1ccc(C(=O)Nc2ccc(N3CCN(c4nccs4)CC3)cc2)c(F)c1 [Example 21, 2-Fluoro-4-methyl-N-[4-[4-(1,3-thiazol-2-yl)piperazin-1-yl]phenyl]benzamide] | 85 | 91
11 | COc1ccc(C(=O)Nc2ccc(N3CCN(c4ccccn4)CC3)cc2C)c(F)c1 [Example 29, 2-Fluoro-4-methoxy-N-(2-methyl-4-(4-(pyridin-2-yl)piperazin-1-yl)phenyl)benzamide] | 81 | 83
12 | Cc1cccc(N2CCN(c3ccc(NC(=O)c4ccc(N(C)C)cc4)cc3)CC2)n1 [Example 30, 4-(Dimethylamino)-N-(4-(4-(6-methylpyridin-2-yl)piperazin-1-yl)phenyl)benzamide] | 91 | 96
13 | CN(C)c1ccc(C(=O)Nc2ccc(N3CCN(c4ccccn4)CC3)nc2)cc1 [Example 31, 4-(Dimethylamino)-N-[6-[4-(2-pyridyl)piperazin-1-yl]-3-pyridyl]benzamide] | 90 | 98
14 | O=C(Nc1ccc(N2CCN(c3ccccn3)CC2)nc1)c1ccc(N2CCOCC2)cc1 [Example 32, 4-Morpholino-N-[6-[4-(2-pyridyl)piperazin-1-yl]-3-pyridyl]benzamide] | 87 | 88
15 | Cc1ccc(C(=O)Nc2ccc(N3CCN(c4ccccn4)CC3)nc2)nc1 [Example 33, 5-Methyl-N-[6-[4-(2-pyridyl)piperazin-1-yl]-3-pyridyl]pyridine-2-carboxamide] | 85 | 90
16 | COc1ccc(C(=O)Nc2ccc(N3CCN(c4ccccn4)CC3)nc2)c(F)c1 [Example 34, 2-Fluoro-4-methoxy-N-[6-[4-(2-pyridyl)piperazin-1-yl]-3-pyridyl]benzamide] | 84 | 99
17 | CN(C)c1ccc(C(=O)Nc2ccc(N3CCN(c4ccccn4)CC3)nn2)cc1 [Example 36, 4-(Dimethylamino)-N-[6-[4-(2-pyridyl)piperazin-1-yl]pyridazin-3-yl]benzamide] | 86 | 91
18 | Cc1ccc(C(=O)Nc2ccc(N3CCN(c4cccnc4)CC3)cc2)cc1 [Example 37, 4-Methyl-N-(4-(4-(pyridin-3-yl)piperazin-1-yl)phenyl)benzamide] | 94 | 97

Row | SMILES | inhibition at 1 µM [1] [%] | inhibition at 1 µM [2] [%]
19 | COc1ccc(C(=O)Nc2ccc(N3CCN(c4cccnc4)CC3)cc2)cc1 [Example 38, 4-Methoxy-N-(4-(4-(pyridin-3-yl)piperazin-1-yl)phenyl)benzamide] | 96 | 93
20 | O=C(Nc1ccc(N2CCN(c3cccnc3)CC2)cc1)c1ccc(N2CCOCC2)cc1 [Example 39, 4-Morpholino-N-(4-(4-(pyridin-3-yl)piperazin-1-yl)phenyl)benzamide] | 87 | 69
21 | COc1ccc(C(=O)Nc2ccc(N3CCN(c4ccccn4)CC3)nn2)c(F)c1 [Example 40, 2-Fluoro-4-methoxy-N-[6-[4-(2-pyridyl)piperazin-1-yl]pyridazin-3-yl]benzamide] | 86 | 92
22 | COc1ccc(C(=O)Nc2ccc(N3CCN(c4ccncc4)CC3)cc2)cc1 [Example 41, 4-Methoxy-N-[4-[4-(4-pyridyl)piperazin-1-yl]phenyl]benzamide] | 84 | 90
23 | CN1CCOc2cc(C(=O)Nc3ccc(N4CCN(c5ccccn5)CC4)cc3)ccc21 [Example 42, 4-Methyl-N-(4-(4-(pyridin-2-yl)piperazin-1-yl)phenyl)-3,4-dihydro-2H-benzo[b][1,4]oxazine-7-carboxamide] | 91 | 94
24 | COc1ccc(C(=O)Nc2ccc(N3CCN(c4ccccn4)CC3)cn2)cc1 [Example 43, 4-Methoxy-N-(5-(4-(pyridin-2-yl)piperazin-1-yl)pyridin-2-yl)benzamide] | 84 | 99
25 | COc1ccc(C(=O)Nc2ccc(N3CCN(c4ccccn4)CC3)cn2)c(F)c1 [Example 44, 2-Fluoro-4-methoxy-N-(5-(4-(pyridin-2-yl)piperazin-1-yl)pyridin-2-yl)benzamide] | 95 | 94
26 | Cc1ccc(C(=O)Nc2ccc(N3CCN(c4ccccn4)CC3)cn2)cc1 [Example 45, 4-Methyl-N-(5-(4-(pyridin-2-yl)piperazin-1-yl)pyridin-2-yl)benzamide] | 97 | 98
27 | CN(C)c1ccc(C(=O)Nc2ccc(N3CCN(c4ccccn4)CC3)cn2)cc1 [Example 46, 4-(Dimethylamino)-N-(5-(4-(pyridin-2-yl)piperazin-1-yl)pyridin-2-yl)benzamide] | 94 | 96
28 | O=C(Nc1ccc(N2CCN(c3ccccn3)CC2)cn1)c1ccccc1F [Example 47, 2-Fluoro-N-(5-(4-(pyridin-2-yl)piperazin-1-yl)pyridin-2-yl)benzamide] | 83 | 94
29 | O=C(Nc1ccc(N2CCN(c3ccccn3)CC2)nn1)c1ccc(N2CCOCC2)cc1 [Example 48, 4-Morpholino-N-[6-[4-(2-pyridyl)piperazin-1-yl]pyridazin-3-yl]benzamide] | 97 | 93
30 | COc1ccc(C(=O)Nc2ccc(N3CCN(c4ncccn4)CC3)cc2)cc1 [Example 49, 4-Methoxy-N-{4-[4-(pyrimidin-2-yl)piperazin-1-yl]phenyl}benzamide] | 92 | 95
31 | COc1ccc(C(=O)Nc2ccc(N3CCN(c4ccc(C#N)cn4)CC3)cc2)cc1 [Example 50, N-(4-(4-(5-Cyanopyridin-2-yl)piperazin-1-yl)phenyl)-4-methoxybenzamide] | 97 | 86
32 | O=C(Nc1ccc(N2CCN(c3ccccn3)CC2)cn1)c1ccc(N2CCOCC2)cc1 [Example 51, 4-Morpholino-N-(5-(4-(pyridin-2-yl)piperazin-1-yl)pyridin-2-yl)benzamide] | 94 | 94
33 | Cc1ccc(C(=O)Nc2ccc(N3CCN(c4ccccn4)CC3)cn2)c(F)c1 [Example 52, 2-Fluoro-4-methyl-N-(5-(4-(pyridin-2-yl)piperazin-1-yl)pyridin-2-yl)benzamide] | 92 | 95
34 | Cc1ccc(C(=O)Nc2ccc(N3CCN(c4ccccn4)CC3)cn2)nc1 [Example 53, 5-Methyl-N-(5-(4-(pyridin-2-yl)piperazin-1-yl)pyridin-2-yl)picolinamide] | 82 | 86
35 | Cc1cccc(C(=O)Nc2ccc(N3CCN(c4ccccn4)CC3)cn2)c1 [Example 54, 3-Methyl-N-(5-(4-(pyridin-2-yl)piperazin-1-yl)pyridin-2-yl)benzamide] | 82 | 90
36 | COc1ccc(C(=O)Nc2ccc(N3CCN(c4ncncn4)CC3)cc2)cc1 [Example 55, 4-Methoxy-N-{4-[4-(1,3,5-triazin-2-yl)piperazin-1-yl]phenyl}benzamide] | 81 | 95
